Results from patent publication US9067894B1, “Compound, composition, and method of activating GIRK potassium channel and use of same for treating conditions of interest” (Vanderbilt University, priority 2013, dated 2015).
pEC50: −log10 of the molar value.

Assays:
Assay type in all cases: cell-based
GIRK1/4 = molecular target: T1, GIRK1/4 (Homo sapiens, UniProt P48544+P48549); assay: Thallium flux assay protocol (Examples 2 and 3), GIRK1/GIRK4 HEK-293 cells; settings: for GIRK1/4 efficacy (activator): standardized to 2 (ML297) = 100%; for pEC50: triplicate determinations
T1 construct: expressed in transfected cells; host or cells: HEK-293
T1 sequence (P48549 1-501): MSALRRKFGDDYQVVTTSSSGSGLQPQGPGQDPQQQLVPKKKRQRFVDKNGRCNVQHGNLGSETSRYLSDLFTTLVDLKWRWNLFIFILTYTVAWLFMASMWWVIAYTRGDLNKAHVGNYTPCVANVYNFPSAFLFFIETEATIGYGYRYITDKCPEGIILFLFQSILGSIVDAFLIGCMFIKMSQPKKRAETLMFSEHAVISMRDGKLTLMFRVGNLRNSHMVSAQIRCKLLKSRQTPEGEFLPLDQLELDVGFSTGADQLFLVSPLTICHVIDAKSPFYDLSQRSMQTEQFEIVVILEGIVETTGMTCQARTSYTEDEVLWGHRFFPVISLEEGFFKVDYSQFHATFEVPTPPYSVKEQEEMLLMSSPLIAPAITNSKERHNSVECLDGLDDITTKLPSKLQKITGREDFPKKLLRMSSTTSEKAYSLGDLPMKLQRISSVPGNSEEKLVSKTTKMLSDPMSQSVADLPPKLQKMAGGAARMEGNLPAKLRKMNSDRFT
T1 sequence (P48544 1-419): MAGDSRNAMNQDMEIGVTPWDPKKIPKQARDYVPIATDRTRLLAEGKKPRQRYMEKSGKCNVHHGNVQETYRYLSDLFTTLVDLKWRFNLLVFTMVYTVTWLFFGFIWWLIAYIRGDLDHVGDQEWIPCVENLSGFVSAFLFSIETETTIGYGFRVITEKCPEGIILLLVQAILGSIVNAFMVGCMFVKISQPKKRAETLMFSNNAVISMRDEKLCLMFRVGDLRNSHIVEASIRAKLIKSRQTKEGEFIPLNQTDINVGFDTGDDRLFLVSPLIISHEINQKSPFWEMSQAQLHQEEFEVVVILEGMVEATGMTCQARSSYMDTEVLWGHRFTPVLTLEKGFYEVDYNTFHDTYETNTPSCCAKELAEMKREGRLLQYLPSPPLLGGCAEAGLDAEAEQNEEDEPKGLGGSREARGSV
Experimental: (§1) Compounds were dissolved in DMSO, transferred to 384-well polypropylene plates, and serially diluted in DMSO using and Agilent Bravo (11-points, threefold dilutions). Serially diluted plates were dispensed to daughter plates using a Labcyte Echo555 and diluted to twofold over their target assay concentration with 20 mM HEPES-buffered (pH 7.4) Hanks Balanced Salt Solution (HBSS), hereafter referred to as Assay Buffer, using a Thermo Fisher Combi. Twenty-thousand HEK-293 cells/well stably transfected with the ion channel subunits of interest (e.g., GIRK1/GIRK2, GIRK1/GIRK4) were plated into 384-well, black-walled, clear-bottom, amine-coated coated plates in 20 LL/well alpha-minimal essential medium (MEM) supplemented with 10% (v/v) fetal bovine serum and incubated overnight in a 5% CO2 incubator at 37° C. Cell culture medium was removed from cell plates and replaced with 20 LL/well Assay Buffer. Twenty microliters/well of 0.5 LM of the thallium-sensitive dye, Thallos-AM (TEFlabs, Austin Tex.) in Assay Buffer was added to cell plates. Cell plates were incubated for 60 min at room temperature and then dye-loading solution was removed from cell plates and replaced with 20 LL/well Assay Buffer. Dye loaded and washed cell plates were transferred to a Hamamatsu FDSS 6000 and a double-addition protocol was initiated. After 10s, 20 LL/well of 20 LM test compound in 0.2% DMSO and Assay Buffer was added. After 4 min 10 LL/well of a 5× sodium bicarbonate-based thallium stimulus buffer (20 mM HEPES pH 7.4, 135 mM NaHCO3, 2 mM CaSO4, 1 mM MgSO4, 5 mM glucose, 12 mM Tl2SO4) was added and 2 more minutes of data collection followed. Fluorescence data were collected at 1 Hz. Data analysis: Waveform signals (fluorescence intensity vs time normalized by dividing each fluorescence value (F) by the initial fluorescence value for each trace (F0)) were reduced to single values by subtracting the average normalized waveform from vehicle control wells from each wave on the plate followed by obtaining the slope of the change in fluorescence immediately after the addition of the thallium stimulus. Slope values were normalized as a percentage of the slope obtained by the addition of a maximally effective concentration of the GIRK activator, ML297 (e.g., an efficacy value of 100% means that the compound's maximum apparent efficacy equals that of ML297). Curve fits for normalized slope values were obtained using a four-parameter logistic equation in the Excel add-in, XLfit.

GIRK1/2 [1] = molecular target: T2, GIRK1/2 (Homo sapiens, UniProt P48051+P48549); assay: Thallium flux assay protocol (Examples 2 and 3), GIRK1/GIRK2 HEK-293 cells; design: expressed in transfected cells; host or cells: HEK-293; settings: for GIRK1/2 efficacy (activator): standardized to 2 (ML297) = 100%; for pEC50: triplicate determinations
T2 sequence (P48549 1-501): T1 sequence (P48549 1-501)
T2 sequence (P48051 1-423): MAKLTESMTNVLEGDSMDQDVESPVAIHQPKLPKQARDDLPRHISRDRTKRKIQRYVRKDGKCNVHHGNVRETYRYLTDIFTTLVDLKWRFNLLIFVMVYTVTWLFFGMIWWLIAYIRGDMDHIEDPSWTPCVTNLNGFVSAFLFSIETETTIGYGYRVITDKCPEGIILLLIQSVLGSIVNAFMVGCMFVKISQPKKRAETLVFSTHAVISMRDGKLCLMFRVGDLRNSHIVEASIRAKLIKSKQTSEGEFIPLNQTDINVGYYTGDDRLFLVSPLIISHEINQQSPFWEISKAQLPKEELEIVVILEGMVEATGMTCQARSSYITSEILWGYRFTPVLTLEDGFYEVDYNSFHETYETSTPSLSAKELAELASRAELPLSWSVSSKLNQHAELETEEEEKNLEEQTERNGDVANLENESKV
Experimental: as §1, with “Slope values were normalized as a percentage of the slope obtained by the addition of a maximally effective concentration of the GIRK activator, ML297 (e.g., an efficacy value of 100% means that the compound's maximum apparent efficacy equals that of ML297).” left out

GIRK1/2 [2] = molecular target: T2, GIRK1/2; assay: Thallium flux assay, HEK-293 cells expressing GIRK1/2; design: host or cells: HEK-293; settings: confirmed GIRK activator of GIRK1/2, HTS hit; read-out: EC50
Description: Cell Line Construction and Cell Culture. HEK-293 cells co-expressing human GIRK1/2 and rat mGlu8 were generated as previously described (Niswender et al., 2008). A HEK-293 cell line (ATCC, Manassas, Va.) expressing human GIRK1 and human GIRK2 was constructed by transfecting HEK-293 cells with GIRK1 and GIRK2 (Origene, Rockville, Md.) cloned into the pBudCE4.1 vector (Life Technologies, Carlsbad, Calif.) using FuGene 6 (Promega, Madison, Wis.) transfection reagent. Unless otherwise noted, other ion channel-expressing cells were prepared by transfecting HEK-293 cells with individual or combinations of subunits: GIRK1, pCMV6-A-BSD; GIRK2, pCMV6-A-puro; GIRK3, pCMV6-A-hygro; GIRK4, pCMV6-A-AC; Kv7.4, pIRESneo3. The Kir2.1 and hERG-expressing cell lines were made by transfecting T-REx-293 cells (Life Technologies, Carlsbad, Calif.) with Kir2.1 and Kv11.1, respectively, cloned into pcDNA5TO. Monoclonal cell lines were produced by limiting-dilution cloning of antibiotic-resistant cells and functional selection using the thallium flux assay described below. Unless otherwise noted, cells were maintained in Minimal Essential Medium, Alpha Medium (Mediatech, Manassas, Va.) supplemented with 10% fetal bovine serum (Sigma-Aldrich, Saint Louis, Mo.) and GlutaGro (Mediatech, Manassas, Va.), referred to henceforth as cell culture medium. […]

GIRK1/4 efficacy (activator) (GIRK1/4) [%] | GIRK1/2 efficacy (activator) (GIRK1/2 [1]) [%] | pEC50 (GIRK1/4; Table 4, analogs 8) | Compound | other results
114 | 108 | – | Cc1ccc(NC(=O)Cc2ccccc2Br)cc1S(=O)(=O)N(C)C [3a] | –
99 | 87 | – | Cc1cc(NC(=O)Nc2ccc(F)c(F)c2)n(Cc2ccccc2)n1 [5d] | –
– | 26 | – | Cc1ccc(NC(=O)Nc2ccc(C(F)(F)F)cc2)cc1S(=O)(=O)N(C)C [6h] | pEC50 (GIRK1/2 [1]; Table 3, analogs 6 (ureas)): 4.82
– | – | – | COc1ccc(OC)c(NC(=O)Nc2ccc(C)c(S(=O)(=O)N(C)C)c2)c1 [6i] | activity at GIRK1/4 (in words) (GIRK1/4): inactive; activity at GIRK1/2 (in words) (GIRK1/2 [1]): inactive
– | – | – | Cc1ccc(NC(=O)Nc2cccc(C#N)c2)cc1S(=O)(=O)N(C)C [6j] | pEC50 (GIRK1/4; Table 3, analogs 6 (ureas)): 5.48
– | – | 5.57 | CC(C)(C)c1cccc(NC(=O)Cc2ccccc2Cl)c1 [8b] | pEC50 (GIRK1/2 [1]; Table 4, analogs 8): 5.23
– | – | 5.11 | O=C(Cc1ccccc1Cl)Nc1cccc(OC(F)F)c1 [8c] | –
– | – | < 5.00 | O=C(Cc1ccccc1Cl)Nc1cc(Cl)cc(C(F)(F)F)c1 [8d] | pEC50 (GIRK1/2 [1]; Table 4, analogs 8): < 5.00
17 | – | 6.62 | O=C(Cc1ccccc1Cl)Nc1ccc(Cl)c(C(F)(F)F)c1 [8e] | activity at GIRK1/2 (in words) (GIRK1/2 [1]): inactive
22 | – | 5.74 | O=C(Cc1ccccc1Cl)Nc1cccc(Cl)c1 [8g] | activity at GIRK1/4 (in words) (GIRK1/4): selective, partial GIRK1/4 activators
– | – | – | Cc1cccc(NC(=O)Cc2ccccc2Cl)c1 [8i] | activity at GIRK1/4 (in words) (GIRK1/4): inactive; activity at GIRK1/2 (in words) (GIRK1/2 [1]): inactive
– | – | – | Cc1cc(NC(=O)Nc2ccccc2)n(-c2ccccc2)n1 [CID736191] | pEC50 (GIRK1/2 [2]): ~6.00
104 | 110 | – | Cc1ccc(NC(=O)Cc2ccccc2Cl)cc1S(=O)(=O)N(C)C [compound 3] | –
